Test results taken from article PMC2933744 (Biochemistry, 2008).

Columns and labels:
[1] = target: T1, hPRMT1 (Homo sapiens, UniProt Q99873); test: Initial velocity studies; format: biochemical; conditions: for K(SAM) (Michaelis constant): pH 8.0, 37°C, fit to eq 2
[2] = target: T1, hPRMT1; test: Dead-end analogue inhibition, AcH4-21 and SAM as substrates; format: biochemical; conditions: pH 8.0, 37°C

T1 sequence (Q99873 whole entry): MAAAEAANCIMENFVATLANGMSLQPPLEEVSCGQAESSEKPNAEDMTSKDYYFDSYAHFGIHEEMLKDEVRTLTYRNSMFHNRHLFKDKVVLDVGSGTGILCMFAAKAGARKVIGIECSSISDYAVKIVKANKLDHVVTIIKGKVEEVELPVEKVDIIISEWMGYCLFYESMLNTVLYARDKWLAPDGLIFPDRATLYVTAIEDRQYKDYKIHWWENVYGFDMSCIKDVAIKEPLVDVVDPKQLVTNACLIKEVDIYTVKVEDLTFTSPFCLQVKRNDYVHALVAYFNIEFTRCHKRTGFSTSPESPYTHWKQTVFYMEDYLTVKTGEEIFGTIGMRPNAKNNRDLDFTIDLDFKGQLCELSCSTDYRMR

Compound	K(SAM) (Michaelis constant) ([1]; AcH4-21 varied, fixed SAM 1, 2.5, 7.5 µM)	Initial velocity pattern (double reciprocal plots) ([1]; SAM and peptide varied at various fixed concentrations of the other substrate)	K(SAM) (Michaelis constant) ([1]; SAM varied, fixed AcH4-21 2.5, 5, 25 µM)	Kii (intercept Ki) ([2]; AcH4-21 varied, fixed [SAM] = 15 µM, mixed fit eq 5) [nM]	Inhibition pattern ([2]; SAM varied, fixed AcH4-21 10 µM, 212 nM hPRMT1, at least duplicate)
C[S+](CC[C@H](N)C(=O)[O-])C[C@H]1O[C@@H](n2cnc3c(N)ncnc32)[C@H](O)[C@@H]1O (stereo partly drawn) [SAM, S-adenosyl-L-methionine]	8.35 ± 2.11	intersect in the second quadrant	21.1 ± 4.0	–	–
Nc1ncnc2c1ncn2[C@@H]1O[C@H](C[C@@H](N)CC[C@H](N)C(=O)O)[C@@H](O)[C@H]1O [Sinefungin]	–	–	–	470 ± 190	Competitive
